Data on three compounds can be found in article PMC6765698 (CPT: Pharmacometrics & Systems Pharmacology, 2019).

In brackets after ≈: the same amount, converted by molar mass. Where two headings read alike, the source gives them in different places.

The conditions of data set [1]: pH 1.1; ADAM model input; ref Taupitz 2013 42; cited from earlier work.
The nature of data set [2]: Acid dissociation constant pKa. Format: physicochemical. As to conditions: mean measured, WG, monoprotic base.
Data set [3] is described as follows: Equilibrium solubility in aqueous and bio-relevant media. Type of data set: physicochemical. Conditions: fed state simulated intestinal fluid, pH 5.0.
The nature of data set [4]: Octanol-water partition coefficient logP / logD. Format: physicochemical.
Data set [5] can be described thus: WG PBPK model. More on the design: species or system human.
For data set [6] the following is noted: 100 mg i.v. dose; cited from earlier work.
For data set [7], the target named is T1, CYP3A4 (Homo sapiens, UniProt P08684). The data set is described as follows: Enzyme kinetics. Conditions: human liver microsomes.
T1 sequence (P08684 whole entry): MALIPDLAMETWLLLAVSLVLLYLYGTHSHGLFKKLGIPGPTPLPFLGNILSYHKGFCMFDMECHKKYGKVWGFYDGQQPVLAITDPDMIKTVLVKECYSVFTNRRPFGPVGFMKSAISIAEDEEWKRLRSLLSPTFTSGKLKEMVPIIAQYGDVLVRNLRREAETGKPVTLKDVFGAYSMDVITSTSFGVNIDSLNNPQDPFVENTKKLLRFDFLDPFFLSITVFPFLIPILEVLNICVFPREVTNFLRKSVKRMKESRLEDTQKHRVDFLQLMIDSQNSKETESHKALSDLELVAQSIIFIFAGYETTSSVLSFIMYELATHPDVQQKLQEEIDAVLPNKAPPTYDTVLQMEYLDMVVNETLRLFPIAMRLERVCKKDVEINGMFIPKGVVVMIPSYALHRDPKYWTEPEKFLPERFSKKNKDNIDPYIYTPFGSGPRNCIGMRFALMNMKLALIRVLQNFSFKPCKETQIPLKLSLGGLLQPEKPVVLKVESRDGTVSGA
The target of data set [8] is T1, CYP3A4. Type of data set: biochemical.
A short description of data set [9]: Fraction unbound in human liver microsomes. As to conditions: equilibrium dialysis at 0.05-[…], calculated at […], WG. Format: in vitro ADME.
The conditions of data set [10]: tube adsorption method; ref Isoherranen 2004 (34); cited from earlier work.
Data set [11] in a line: Blood/plasma partition ratio. Format: in vitro ADME. As to conditions: WG.
Where [12] appears, read: first-order absorption model, capsule fasted, adjusted to fit observed data.

On to `CCC(C)n1ncn(-c2ccc(N3CCN(c4ccc(OCC5COC(Cn6cncn6)(c6ccc(Cl)cc6Cl)O5)cc4)CC3)cc2)c1=O` (stereo not shown) [ITZ, itraconazole], for which the Intrinsic solubility in data set [1] is 0.15 mg/mL. This compound showed a pKa in [2] of 3.64. The “Solubility in FeSSIF” value in data set [3] is 5 µg/mL (≈ 7.09 µM). In addition, the logP in data set [4] was 4.9. Also, the “Active uptake into hepatocyte (scaling factor)” value in data set [5] (estimated to best describe ITZ IV CL) is reported as 3.5. In data set [5] (setting [12]), the Fa turned out to be 0.5 and the ka came out at 0.2 h⁻¹. Also, the “CL observed in vivo” value in [6] was ~ 21 L/hour. Moreover, in data set [7], the Km is 23.3 nM.
As to `O=c1[nH]ncn1-c1ccc(N2CCN(c3ccc(OCC4COC(Cn5cncn5)(c5ccc(Cl)cc5Cl)O4)cc3)CC2)cc1` (stereo not shown) [ND-ITZ], the “Fold less potent than previously reported (CYP3A4 inhibition)” value in [8] (apparent Ki in microsomes with WG fu,mic vs literature) was “approximately 40 fold”. Further, the “fu,mic ([…] HLM)” value is reported as 0.70 in data set [9] and 0.026 in data set [10].
Consider `CC(O)C(C)n1ncn(-c2ccc(N3CCN(c4ccc(OCC5COC(Cn6cncn6)(c6ccc(Cl)cc6Cl)O5)cc4)CC3)cc2)c1=O` (stereo not shown) [OH-ITZ, hydroxyitraconazole], for which, in data set [2] (pKa), the pKa is 4. The compound also displayed a Ki in data set [8] of 8.2 nM. In addition, the B/P in data set [11] was found to be 0.55. The logP in data set [4] came to 4.1.

Usually pKa stands for the pH at which an ionisable group is half protonated. A higher pKa goes with a group that holds its proton tightly. As a reminder, the logP is a log measure of how a compound divides between an organic and an aqueous phase. Lower therefore signals lower lipophilicity. As usually defined, the Km is the concentration of substrate that gives half-maximal velocity. The term Ki denotes a dissociation constant, usually derived from enzyme kinetics or from competition with a known ligand. A high value points to weaker binding.
